Results as given in US20240358015A1, “HERBICIDAL COMPOSITIONS” (Agrematch Ltd., priority 2021, published 2024).

What was measured:
Format in all cases: in vivo
Amaranthus palmeri [1] = assay: Growth-chamber post-emergence herbicidal assay (Example 2)
Procedure: (§1) Herbicidal activity was determined by post-emergence application on 8-day old plants (weeds) of the Amaranthus palmeri and Setaria viridis species that were grown at 16 hours/8 hours day/night cycles at 30° C./25° C., respectively. Leaf stage was typically 4-6 for A. palmeri and 3-4 for S. viridis.
(§2) In each treatment, 2-3 pots, each containing about 5 plants each (for Setaria viridis), and one 9-pack, containing about 9 plants (for Amaranthus palmeri), were sprayed using a VL-SET Paasche Airbrush with 0.3-1.5 ml solution containing 0.125-2 mg/ml of a tested compound, which is equivalent to about 125-2000 g/ha.
(§3) Damage assessment: Herbicidal activity was assessed and scored 3-4 days after application by visual inspection of the plants in comparison to plants treated with the formulation alone (with no active ingredient) as control. Activity score is in the range of 0 to 100, where 0 represents no herbicidal activity like control plants and 100 represents the maximal herbicidal activity (i.e., total death of the plant).
Formulation design: Compounds were tested on A. Palmeri in various formulations, and in varying concentrations for each of the tested formulations, in order to determine optimal conditions for its application and performance. Activity scores were determined as described hereinabove. Solubility scores were determined by visual inspection on a scale of 1-10, with 10 representing complete solubilization and 1 represents nullified solubilization.
Each of the obtained solution was then mixed with different adjuvants and applied at a rate equivalent to 500 g/ha for A. palmeri and 1000 g/ha for S. viridis. Herbicidal activity scores 3-4 days after application are presented Table 3 below.

Setaria viridis [2] = assay: Growth-chamber post-emergence assay (Example 8)
Procedure: as §1, with “activity of Compounds 1B, 3, 4, 5 and 6” for “activity”
(§4) In each treatment, between 1 to 4 pots (8×12 cm), containing about 6 Amaranthus palmeri or Setaria viridis plants, were sprayed using a VL-SET Paasche Airbrush with a 1 ml-solution containing 0.250-2 mg/ml of the tested compound, which is equivalent to about 250-2000 g/ha.
as §3

Amaranthus palmeri [3] = assay: Growth-chamber post-emergence assay (Example 8)
Procedure: as §1, with “activity of Compounds 1B, 3, 4, 5 and 6” for “activity”
as §4, §3

Setaria viridis [4] = assay: Growth-chamber post-emergence herbicidal assay (Example 2)
Procedure: as §1, §2, §3
Herbicidal activity scores 3-4 days after application are presented Table 3 below.

[5] = 2000 g/ha, 8.6% Acetophenone, 2% TWEEN 20, 1.4% NMP, 0.5% ECO, 0.5% Ca-LAS, 0.05% Break-Thru
[6] = 1000 g/ha, 2% MIPA, 2% DMSO, 1% TWEEN20, 2% HASTEN
[7] = 2000 g/ha, 2% MIPA, 1% TWEEN20, 2% HASTEN
[8] = 1000 g/ha, 8.6% Acetophenone, 1% TWEEN 80, 1.4% NMP, 0.5% ECO, 0.5% Ca-LAS, 0.05% Break-Thru
[9] = 250 g/ha, 10% Acetone, 1.85% MIPA, 5% DMSO, 0.23% Genapol, 1.85% HASTEN
[10] = 500 g/ha, 10% Acetone, 1.7% MIPA, 5% DMSO, 0.85% TWEEN20, 1.7% HASTEN
[11] = 2000 g/ha, 2% MIPA, 2% DMSO, 1% TWEEN20, 2% HASTEN
[12] = 250 g/ha, 14% Acetone, 2% MIPA, 5% DMSO, 1% TWEEN20, 2% HASTEN
[13] = 330 g/ha, 5% Acetone, 2% MIPA, 2.5% DMSO, 0.25% Genapol, 2% HASTEN
[14] = 330 g/ha, 10% Acetone, 0.8% MIPA, 5% DMSO, 0.25% Genapol, 2% HASTEN
[15] = 330 g/ha, 10% Acetone, 2% MIPA, 5% DMSO, 0.25% Genapol, 2% HASTEN
[16] = 500 g/ha, 18.5% Acetone, 2% MIPA, 5% DMSO, 1% TWEEN20, 2% HASTEN
[17] = 250 g/ha, 2% MIPA, 2% DMSO, 0.25% Genapol, 2% HASTEN
[18] = 500 g/ha, 2% MIPA, 2% DMSO, 0.25% Genapol, 2% HASTEN
[19] = 1000 g/ha, 2% MIPA, 2% DMSO, 0.25% Genapol, 2% HASTEN, 3-4 days after application, scale 0-100

## Cc1cc(O)c2c(c1)C(=O)c1cc(O)cc(O)c1C2=O [Compound 5]
Amaranthus palmeri [1]; [5]
  Activity Score: 70
Setaria viridis [2]; [6]
  Herbicidal activity score: 75
Setaria viridis [2]; [7]
  Herbicidal activity score: 90
Amaranthus palmeri [3]; [6]
  Herbicidal activity score: 95
Amaranthus palmeri [3]; [7]
  Herbicidal activity score: 100

## O=C(O)c1ccc2c(c1)C(=O)c1ccccc1C2=O [Compound 2]
Setaria viridis [4]; 1500 g/ha, 2% DMSO, 1% TWEEN 80, 0.05M Tris buffer pH 8, 0.05% Break-Thru
  Activity Score: 40
Amaranthus palmeri [1]; 500 g/ha, 4.3% Acetophenone, 1% TWEEN 80, 0.7% NMP, 0.25% ECO, 0.25% Ca-LAS, 0.05% Break-Thru
  Activity Score: 100
Amaranthus palmeri [1]; [8]
  Activity Score: 95
Amaranthus palmeri [1]; 2000 g/ha, 2% DMSO, 1% TWEEN 80, 0.05M Tris buffer pH 8, 0.05% Break-Thru
  Activity Score: 100

## COC(=O)c1ccc2c(c1O)C(=O)c1ccccc1C2=O [Compound 3]
Setaria viridis [4]; [5]
  Activity Score: 10
Amaranthus palmeri [1]; [5]
  Activity Score: 80
Setaria viridis [2]; [9]
  Herbicidal activity score: 63
Setaria viridis [2]; [10]
  Herbicidal activity score: 88
Setaria viridis [2]; [6]
  Herbicidal activity score: 95
Setaria viridis [2]; [11]
  Herbicidal activity score: 100
Amaranthus palmeri [3]; [9]
  Herbicidal activity score: 91
Amaranthus palmeri [3]; [10]
  Herbicidal activity score: 99
Amaranthus palmeri [3]; [6]
  Herbicidal activity score: 95
Amaranthus palmeri [3]; [11]
  Herbicidal activity score: 95

## O=C1c2ccccc2C(=O)c2cc(CO)ccc21 [Compound 4]
Setaria viridis [4]; 1500 g/ha, 6% DMSO, 0.05% Break-Thru
  Activity Score: 40
Amaranthus palmeri [1]; [8]
  Activity Score: 95
Amaranthus palmeri [1]; 1500 g/ha, 8.6% Acetophenone, 4% TWEEN 20, 1.4% NMP, 0.5% ECO, 0.5% Ca-LAS, 0.05% Break-Thru
  Activity Score: 95
Setaria viridis [2]; [9]
  Herbicidal activity score: 45
Setaria viridis [2]; [12]
  Herbicidal activity score: 90
Setaria viridis [2]; [13]
  Herbicidal activity score: 80
Setaria viridis [2]; [14]
  Herbicidal activity score: 75
Setaria viridis [2]; [15]
  Herbicidal activity score: 88
Setaria viridis [2]; [16]
  Herbicidal activity score: 50
Amaranthus palmeri [3]; [9]
  Herbicidal activity score: 85
Amaranthus palmeri [3]; [12]
  Herbicidal activity score: 90
Amaranthus palmeri [3]; [13]
  Herbicidal activity score: 88
Amaranthus palmeri [3]; [14]
  Herbicidal activity score: 93
Amaranthus palmeri [3]; [15]
  Herbicidal activity score: 80
Amaranthus palmeri [3]; [16]
  Herbicidal activity score: 95

## O=C(O)c1cc(O)c2c(c1)C(=O)c1cccc(O[C@@H]3O[C@H](CO)[C@@H](O)[C@H](O)[C@H]3O)c1C2=O [Compound 1B, Rhein 8-glucoside]
Setaria viridis [4]; 750* g/ha (rate adjusted to reflect that of the Rhein actual active ingredient), 1% Eta-70, 5.7 mM MIPA, 0.05% Break-Thru
  Activity Score: 50
Amaranthus palmeri [1]; 500 g/ha, 2% TWEEN 20, 0.05M Tris buffer pH 8.3, 0.05% Break-Thru
  Activity Score: 30
Amaranthus palmeri [1]; 750* g/ha (rate adjusted to reflect that of the Rhein actual active ingredient), 2% TWEEN 20, 5.7 mM MIPA, 0.05% Break-Thru
  Activity Score: 70
Setaria viridis [2]; [17]
  Herbicidal activity score: 70
Setaria viridis [2]; [18]
  Herbicidal activity score: 95
Setaria viridis [2]; [19]
  Herbicidal activity score: 90
Amaranthus palmeri [3]; [17]
  Herbicidal activity score: 85
Amaranthus palmeri [3]; [18]
  Herbicidal activity score: 100
Amaranthus palmeri [3]; [19]
  Herbicidal activity score: 100

## O=C1c2ccccc2C(=O)c2c(O)cccc21 [Compound 6]
Setaria viridis [4]; [8]
  Activity Score: 80
Amaranthus palmeri [1]; 1500 g/ha, 8.6% Acetophenone, 1% TWEEN 80, 1.4% NMP, 0.5% ECO, 0.5% Ca-LAS, 0.05% Break-Thru
  Activity Score: 75
Setaria viridis [2]; [12]
  Herbicidal activity score: 90
Setaria viridis [2]; [16]
  Herbicidal activity score: 40
Setaria viridis [2]; [6]
  Herbicidal activity score: 90
Setaria viridis [2]; [11]
  Herbicidal activity score: 95
Amaranthus palmeri [3]; [12]
  Herbicidal activity score: 10
Amaranthus palmeri [3]; [16]
  Herbicidal activity score: 70
Amaranthus palmeri [3]; [6]
  Herbicidal activity score: 70
Amaranthus palmeri [3]; [11]
  Herbicidal activity score: 90

## Nc1ccc(O)c2c1C(=O)c1ccccc1C2=O [Compound 7]
Amaranthus palmeri [1]; [5]
  Activity Score: 40
